According to US10059708B2, “Therapeutic targeting of the interleukin 1 receptor-associated kinase 4 (IRAK4) in leukemias characterized by rearrangements in the mixed lineage leukemia gene (MLL-r)” (Northwestern University, priority 2016, dated 2018):

Assays:
[1] = tested on: MLL-AF6-positive ML2 leukemia cells; test: Dose-dependent growth study, ML2 cells; type: cell-based, human; conditions: different doses, 3 days
Protocol: (§1) FIG. 5. Determinants of the Increased Sensitivity of MLL Leukemia Cells to IRAK Inhibition (A) IRAK4 inhibitor-specific inhibition of MLL leukemia cell proliferation. Multiple MLL leukemia and non-MLL leukemia or lymphoma cell lines were cultured with different doses of IRAK4 inhibitor for 3 days. Data are represented as mean±SD (n=3). (B) Cell growth of MLL-AF9-positive AML MM6 cells is inhibited by IRAK inhibition. Data are represented as mean±SD (n=3). […] The p value was determined with the hypergeometric test. […] (E and F) Depletion of LGALS1 (E) and LMO2 (F) results in reduced growth of MM6 cells. MM6 cells were transduced with shGFP control (GFPi) or two different lentiviral shRNA constructs. After selection with puromycin for 4 days, viable cells were seeded at 0.2 million/mL and cultured for 3 more days before cell viability counting. Data represent the mean±SD (n=3; **p<0.005, one-way ANOVA). See also FIG. 12.
(§2) Determinants of the Increased Sensitivity of MLL Leukemia Cells to IRAK Inhibition. To further determine the effectiveness of IRAK inhibition for MLL leukemia cell growth, we performed dose-dependent studies with multiple patient-derived leukemia cell lines, including MLL leukemia and non-MLL leukemia or lymphoma cells.

[2] = tested on: REH cells; test: REH cell proliferation (trypan blue, Vi-CELL XR); type: cell-based, human; conditions: 500 nM IRAK4 inhibitor
Protocol: FIG. 4. […] Viable cells were seeded at 0.2 million/mL, and they were monitored by trypan blue exclusion staining and counted using a Vi-CELL XR cell counter. Data are represented as mean±SD (n=3). […] Data are represented as mean±SD (n=3). (C) Venn diagram of deregulated genes in SEM cells by IRAK1/4 and IRAK4 inhibitors. […] (D) Venn diagram of deregulated genes in SEM and REH cells by both inhibitors. Little overlap was observed between REH and SEM cells. […] Each cluster is represented by different colors and a circle node represents each enriched term. (G) UBE2O depletion and IRAK inhibition affect a common subset of genes in SEM cells. […] Heatmaps represent Z score-normalized values. See also FIG. 11.
Stabilization of MLL through IRAK Inhibition and UBE2O Depletion Regulates a Specific Gene Regulatory Network in MLL Leukemia. To measure the consequence of stabilizing MLL in MLL leukemia cells, we determined the effects of IRAK inhibition on cell proliferation of REH (MLL-germline leukemia) and SEM (MLL-AFF1) cells. Both of these cell lines are derived from precursor B cell ALL patient blast cells, and, therefore, they have been studied when comparing non-MLL (REH) and MLL-dependent (SEM) leukemia gene expression (Guenther et al., 2008).

[3] = tested on: MLL-AF9 leukemia; test: Murine MLL-AF9 leukemia transplantation model; type: in vivo, C57BL/6 mice; conditions: treatment from day 10 after transplantation; IRAK1/4 inhibitor 8 mg/kg, IRAK4 inhibitor 75 mg/kg i.p. every other day; vehicle mice all dead by 31 days
Excerpt: After transformation of MLL-AF9, c-Kit+ HSPCs were transplanted into lethally irradiated C57BL/6 mice with 1 3 106 transformed cells and 2 3 105 support cells. Leukemia cells from primary AML mice were isolated and transplanted into sublethally irradiated C57BL/6 mice. Drug treatments were started at day 10 or 19 after transplantation. (B) Kaplan-Meier survival curves of secondary transplanted C57BL/6 mice after vehicle and IRAK1/4 or IRAK4 inhibitor treatment at day 19 (blast phase). Vehicle or IRAK inhibitors were administered every other day by intraperitoneal injection for a total of five treatments. Leukemia was confirmed at the endpoint for each transplant mouse. […] The p values were calculated using the log rank test. […] The p values were calculated using the log rank test. […]
We further assessed the effects of the IRAK inhibitors in vivo using the murine MLL-AF9 leukemia transplantation model (FIG. 7A) (Volk et al., 2014). […]
Murine MLL-AF9 Leukemia Model. […] The mice were monitored for signs of acute leukemia for 2-3 months and euthanized when leukemia was evident (weight loss below 16.75 g, reduced mobility, malaise, palpable spleen, and hunched back). […]
Animal Treatment. […] Mice were monitored for leukemia development and leukemia was verified after the mice were sacrificed upon signs of illness (weight loss below 16.75 g, partial paralysis, malaise, palpable spleen, and hunched back).

[4] = tested on: MLL-rearranged AML and ALL leukemia cells; test: Dose-dependent growth study with patient-derived leukemia cell lines; type: cell-based, human; conditions: different doses, 3 days
Protocol: as §1, §2

In the case of `COc1cc2c(cc1OCCCN1CCN(C)CC1)ncc1c3ccc(C#N)cc3[nH]c21` [IRAK4 inhibitor], the “sensitivity of ML2 cells (wild-type MLL allele deleted)” value [1] is reported as “not sensitive”, the REH cell proliferation [2] is reported as “no detectable effect” and the “mice that still did not develop MLL-AF9 leukemia as of day 55” value [3] is reported as “four of nine”. For the same compound, the “cell growth of MLL-rearranged versus non-MLL leukemia or lymphoma cells” value [4] was “preferentially impeded cell growth of MLL-rearranged AML and ALL leukemia cells”.
